Measurements: patent US6395732B1, “Pyrimidin-aminomethyl-pyridine derivatives, their preparation and their use in the control of helicobacter bacteria” (BYK Gulden Lomberg Chemische Fabrik GmbH, priority 1998, dated 2002)

What was measured:
[1] = test system: Helicobacter pylori; assay: Activity against Helicobacter pylori, agar method of Iwahi et al. (MIC 50); assay type: cell-based; settings: Helicobacter pylori, 96 h; Columbia agar (Oxoid), growth period of 4 days; approximate values; read-out: Appr. MIC 50
From the text: The compounds of the formula I were investigated with respect to their activity against Helicobacter pylori following the method described by Tomoyuki Iwahi et al. (Antimicrobial Agents and Chemotherapy, 1991, 490-496) using Columbia agar (Oxoid) and a growth period of 4 days.

| MIC50 [1] [µg/mL] | melting point [°C] | SMILES |
| --- | --- | --- |
| ≤ 0.1 | 169 to 171 | Cc1nc(C)c(Cl)c(NCc2nccc(OCCCSCCn3c([N+](=O)[O-])cnc3C)c2C)n1 [Compound 33, (5-Chloro-2,6-dimethyl-pyrimidin-4-yl)-(3-methyl-4-{3-[2-(2-methyl-5-nitro-imidazol-1-yl)-ethylsulfanyl]-propoxy}-pyridin-2-ylmethyl)-amine] |
| ≤ 0.1 | 111 to 113 | Cc1nc(C)c(Cl)c(NCc2nccc(OCCCSCc3ccncc3)c2C)n1 [Compound 34, (5-Chloro-2,6-dimethyl-pyrimidin-4-yl)-{3-methyl-4-[3-(pyridin-4-ylmethylsulfanyl)-propoxy]-pyridin-2-ylmethyl}-amine] |
| ≤ 0.1 | 114 to 116 | Cc1nc(C)c(Cl)c(NCc2nccc(OCCOCCSCCO)c2C)n1 [Compound 35, 2-[2-(2-{2-[(5-Chloro-2,6-dimethyl-pyrimidin-4-ylamino)-methyl]-3-methyl-pyridin-4-yloxy}-ethoxy)-ethylsulfanyl]-ethanol] |
| ≤ 0.1 | 116 to 118 | Cc1nc(C)c(Cl)c(NCc2nccc(OCCCCSCCO)c2C)n1 [Compound 36, 2-(4-{2-[(5-Chloro-2,6-dimethyl-pyrimidin-4-ylamino)-methyl]-3-methyl-pyridin-4-yloxy}-butylsulfanyl)-ethanol] |
| ≤ 0.1 | 142 to 143 | Cc1nc(C)c(Cl)c(NCc2nccc(SCCCCSCCO)c2C)n1 [Compound 37, 2-(4-{2-[(5-Chloro-2,6-dimethyl-pyrimidin-4-ylamino)-methyl]-3-methyl-pyridin-4-ylsulfanyl}-butylsulfanyl)-ethanol] |
| ≤ 0.1 | 123 to 126 | Cc1nc(C)c(Cl)c(NCc2nccc(SCCCN3CCN(CC4CN(Cc5ccncc5)C(=O)O4)CC3)c2C)n1 (stereo not shown) [Compound 38, 5-[4-(3-{2-[(5-Chloro-2,6-dimethyl-pyrimidin-4-ylamino)-methyl]-3-methyl-pyridin-4-ylsulfanyl}-propyl)-piperazin-1-ylmethyl]-3-pyridin-4-ylmethyl-oxazolidin-2-one] |
| ≤ 0.1 | 174 to 180 | Cc1nc(C)c(Cl)c(NCc2nccc(SCCCSc3sccc3[N+](=O)[O-])c2C)n1 [Compound 40, (5-Chloro-2,6-dimethyl-pyrimidin-4-yl)-{3-methyl-4-[3-(3-nitro-thiophen-2-ylsulfanyl)-propylsulfanyl]-pyridin-2-ylmethyl}-amine] |
| ≤ 0.1 | 112 to 115 | Cc1nc(C)c(Cl)c(NCc2nccc(SCCCSCCSc3ncccn3)c2C)n1 [Compound 41, (5-Chloro-2,6-dimethyl-pyrimidin-4-yl)-(3-methyl-4-{3-[2-(pyrimidin-2-ylsulfanyl)-ethylsulfanyl]-propylsulfanyl}-pyridin-2-ylmethyl)-amine] |
| ≤ 0.1 | 68 to 71 | Cc1nc(C)c(Cl)c(NCc2nccc(SCCOCCSCc3ccncc3)c2C)n1 [Compound 42, (5-Chloro-2,6-dimethyl-pyrimidin-4-yl)-(3-methyl-4-{2-[2-(pyridin-4-ylmethylsulfanyl)-ethoxy]-ethylsulfanyl}-pyridin-2-ylmethyl)-amine] |
| ≤ 0.1 | 84 to 86 | Cc1nc(C)c(Cl)c(NCc2nccc(SCCOCCOCCSCc3ccncc3)c2C)n1 [Compound 43, (5-Chloro-2,6-dimethyl-pyrimidin-4-yl)-[3-methyl-4-(2-{2-[2-(pyridin-4-ylmethylsulfanyl)-ethoxy]-ethoxy}-ethylsulfanyl)-pyridin-2-ylmethyl]-amine] |
| ≤ 0.1 | 148 to 149 | Cc1nc(C)c(Cl)c(NCc2nccc(SCC3CCCN(C)C3)c2C)n1 (stereo not shown) [Compound 44, (5-Chloro-2,6-dimethyl-pyrimidin-4-yl)-[3-methyl-4-(1-methyl-piperidin-3-ylmethylsulfanyl)-pyridin-2-ylmethyl]-amine] |
| ≤ 0.1 | 149 to 151 | Cc1c(SCCCN2CCN(Cc3ccncc3)CC2)ccnc1CNc1ncncc1Cl [Compound 45, (5-Chloro-pyrimidin-4-yl)-{3-methyl-4-[3-(4-pyridin-4-ylmethyl-piperazin-1-yl)-propylsulfanyl]-pyridin-2-ylmethyl}-amine] |
| ≤ 0.1 | 188 to 191.9 | Cc1nc(C)c(Cl)c(NCc2nccc(SCc3ccncc3)c2C)n1 [Compound 46, (5-Chloro-2,6-dimethyl-pyrimidin-4-yl)-[3-methyl-4-(pyridin-4-ylmethylsulfanyl)-pyridin-2-ylmethyl]-amine] |
| ≤ 0.1 | 104 to 105 | Cc1nc(C)c(Cl)c(NCc2nccc(SCCCSCc3cccnc3)c2C)n1 [Compound 47, (5-Chloro-2,6-dimethyl-pyrimidin-4-yl)-{3-methyl-4-[3-(pyridin-3-ylmethylsulfanyl)-propylsulfanyl]-pyridin-2-ylmethyl}-amine] |
| ≤ 0.1 | 100 to 101 | Cc1nc(C)c(Cl)c(NCc2nccc(SCCCSCc3ccccn3)c2C)n1 [Compound 48, (5-Chloro-2,6-dimethyl-pyrimidin-4-yl)-{3-methyl-4-[3-(pyridin-2-ylmethylsulfanyl)-propylsulfanyl]-pyridin-2-ylmethyl}-amine] |
| ≤ 0.1 | 145 to 147 | Cc1c(OCCSCCn2c([N+](=O)[O-])cnc2C)ccnc1CNc1ncncc1Cl [Compound 49, (5-Chloro-pyrimidin-4-yl)-(3-methyl-4-{2-[2-(2-methyl-5-nitro-imidazol-1-yl)-ethylsulfanyl]-ethoxy}-pyridin-2-ylmethyl)-amine] |
| ≤ 0.1 | 90 to 92 | Cc1nc(C)c(Cl)c(NCc2nccc(SCCOCCSCc3cccnc3)c2C)n1 [Compound 52, (5-Chloro-2,6-dimethyl-pyrimidin-4-yl)-(3-methyl-4-{2-[2-(pyridin-3-ylmethylsulfanyl)-ethoxy]-ethylsulfanyl}-pyridin-2-ylmethyl)-amine] |
| ≤ 0.1 | 70 to 72 | Cc1nc(C)c(Cl)c(NCc2nccc(SCCOCCSCc3ccccn3)c2C)n1 [Compound 53, (5-Chloro-2,6-dimethyl-pyrimidin-4-yl)-(3-methyl-4-{2-[2-(pyridin-2-ylmethylsulfanyl)-ethoxy]ethylsulfanyl}-pyridin-2-ylmethyl)-amine] |
| ≤ 0.1 | 119 to 121 | Cc1c(OCCSCc2ccncc2)ccnc1CNc1ncncc1Cl [Compound 54, (5-Chloro-pyrimidin-4-yl)-{3-methyl-4-[2-(pyridin-4-ylmethylsulfanyl)-ethoxy)-pyridine-2-ylmethyl}-amine] |
| ≤ 0.1 | 158 to 161 | CN(CCO)c1ccnc(CNc2ncncc2Cl)c1Cl [Compound 55, 2-({3-Chloro-2-[(5-chloro-pyrimidin-4-ylamino)-methyl]-pyridin-4-yl}-methyl-amino)-ethanol] |
| ≤ 0.1 | 143 to 146 | Cc1c(OCCCSCCn2c([N+](=O)[O-])cnc2C)ccnc1CNc1ncncc1Cl [Compound 56, (5-Chloro-pyrimidin-4-yl)-(3-methyl-4-{3-[2-(2-methyl-5-nitro-imidazol-1-yl)-ethylsulfanyl]-propoxy}-pyridin-2-ylmethyl)-amine] |
| ≤ 0.1 | 160 to 163 | Cc1nc(C)c(Cl)c(NCc2nccc(SCCOCCn3c([N+](=O)[O-])cnc3C)c2C)n1 [Compound 57, (5-Chloro-2,6-dimethyl-pyrimidin-4-yl)-(3-methyl-4-{2-[2-(2-methyl-5-nitro-imidazol-1-yl)-ethoxy]-ethylsulfanyl}-pyridin-2-ylmethyl)-amine] |
| ≤ 0.1 | 129 to 130 | Cc1c(OCCSCc2ccco2)ccnc1CNc1ncncc1Cl [Compound 58, (5-Chloro-pyrimidin-4-yl)-{4-[2-(furan-2-ylmethylsulfanyl)-ethoxy]-3-methyl-pyridin-2-ylmethyl}-amine] |
| ≤ 0.1 | 169 to 170 | Cc1c(SCc2ccco2)ccnc1CNc1ncncc1Cl [Compound 59, (5-Chloro-pyrimidin-4-yl)-[4-(furan-2-ylmethylsulfanyl)-3-methyl-pyridin-2-ylmethyl]-amine] |
| ≤ 0.1 | 159 to 160 | Cc1nc(C)c(Cl)c(NCc2nccc(SCc3ccco3)c2C)n1 [Compound 60, (5-Chloro-2,6-dimethyl-pyrimidin-4-yl)-[4-(furan-2-ylmethylsulfanyl)-3-methyl-pyridin-2-ylmethyl]-amine] |

| SMILES | MIC50 [1] [µg/mL] | melting point [°C] |
| --- | --- | --- |
| Cc1nc(C)c(Cl)c(NCc2nccc(OCCCCSCc3ccccn3)c2C)n1 [Compound 51, (5-Chloro-2,6-dimethyl-pyrimidin-4-yl)-{3-methyl-4-[4-(pyridin-2-ylmethylsulfanyl)-butoxy]-pyridin-2-ylmethyl}-amine] | ≤ 0.1 | 113 to 114 |
